In experiment [1] the test system is uterine muscle isolated from pregnant rats. The experiment can be described thus: Spontaneous contractions of uterine muscle isolated from pregnant rats (organ bath). It counts as cell-based. Conditions: pregnant rat uterine muscle, mean ± standard error, 10 samples. The procedure: The experimental operation of this study was as reported by T. Kawarabayashi et al.^1 After each SD-strain rat on Day 21 of pregnancy were exsanguinated to death, the uterus was isolated to prepare up to 8 myometrial strips (about 4 mm×10 mm) in the direction of the longitudinal muscle, with the adhesion to the placenta being avoided.
Each myometrial strip was suspended in an organ bath containing 10 mL of a Locke-Ringer solution at 37° C. (aerated with 95% O2+5% CO2 gas) with a load of about 1.0 g. After the amplitude and frequency of the muscular spontaneous contractions became stable, distilled water was added. Five minutes later, the test, control, or positive control substance was added cumulatively with intervals of 5 minutes. The myometrial contractile force was delivered to a strain pressure amplifier through a force displacement transducer and recorded on a Rectigraph.
Considering the sum of the uterine contraction during 5 minutes after the addition of distilled water as 100%, the response rate to each concentration of the test, control, or positive control substance was calculated from the sum of the uterine contraction after each was added. Variable points (peaks) with amplitude (tension) of 0.2 g or lower were excluded from analysis. Samples showing any of the following events were not used for the study or excluded from analysis.
Microsoft® Excel 2000 (Microsoft Corp.) was used to sum up and analyze data and prepare tables and figures. Using a concentration-response curve obtained for each sample (X axis: log value of the concentration of the drug added, Y axis: response rate), a negative log value (pD2) of the concentration that inhibited the uterine contraction by 50% (EC50) was calculated from a straight line that connects the 2 concentrations above and below 50%, and converted to EC50.

Experiment [2] relates to uterine muscles isolated from pregnant rabbits. As to the kind of experiment: Oxytocin-induced contractions of isolated uterine muscles of pregnant rabbits (organ bath). It counts as cell-based, rabbit. Conditions: oxytocin (1 mU/mL)-induced contractions, pregnant rabbit uterine muscles; for EC50: Oryctolagus cuniculus, read-out: pD2 values (converted). The procedure: Uterine muscles of pregnant rabbits were isolated, and experiments were conducted based on organ-bath method. After specimens of uterine muscles were suspended and oxytocin (1 mU/mL)-induced contractions was stabilized, the test substance, control substance or positive control substance was administered every 10 min, while doses were increased gradually. Efficacy of drugs was evaluated by comparing the sum of uterine contraction for 10 min before and after administration of drugs, defining the former as 100%.

The test system is the same in experiment [3]. The experiment can be described thus: Spontaneous contractions of isolated uterine muscles of pregnant rabbits (organ bath). The format is cell-based, rabbit. Conditions: spontaneous contractions, pregnant rabbit uterine muscles; for EC50: Oryctolagus cuniculus, read-out: pD2 values (converted). The procedure:
Uterine muscles of pregnant rabbits were isolated, and experiments were conducted based on organ-bath method. After specimens of uterine muscles were suspended and spontaneous contractions was stabilized, the test substance, control substance or positive control substance was administered every 10 min, while doses were increased gradually. Efficacy of drugs was evaluated by comparing the sum of uterine contraction for 10 min before and after administration of drugs, defining the former as 100%.

Experiment [4] concerns uterine muscle isolated from pregnant rats. The experiment can be described thus: Oxytocin-induced contraction of uterine muscle isolated from pregnant rats. It counts as cell-based, rat. Particulars: contraction induced with 1 mU/mL of oxytocin, mean ± standard error of 10 samples. The procedure: (§1) After SD-strain rats on Day 17 of pregnancy were exsanguinated to death, the uterus was isolated to prepare up to 8 myometrial strips (about 4 mm×10 mm) per animal in the direction of the longitudinal muscle while avoiding the adhesion to the placenta. Each strip was suspended in an organ bath containing 10 mL of a modified Locke-Ringer solution at […] (aerated with 95% O2+5% CO2 gas) with a load of about 1.0 g. After the suspended sample became stable for static tension, 5 μg/mL of PG F2α or 1 mU/mL of oxytocin was added to induce contraction. After the sample was allowed to stand for at least 30 minutes to confirm stable rhythmic contraction for frequency and amplitude, the test, control, or positive control substance solution was added cumulatively at intervals of 5 minutes. After the treatment was completed, 1×10^−5 mol/L of forskolin was added to obtain maximal relaxation. The contractile force of the uterine sample was delivered via a force displacement transducer to a strain pressure amplifier and recorded on a Rectigraph.
(§2) Considering the sum of the uterine contraction for 5 minutes before treatment as 100%, the response rate to each concentration of the test, control, or positive control substance solution was calculated from the sum of uterine contraction after treatment for both PG F2α and oxytocin induced contraction. Then, the response rates obtained were used to prepare a concentration-response curve for each sample. The maximum relaxation obtained by adding forskolin was considered as a baseline. Variable points (peaks) with amplitude (tension) of […] or lower were excluded from analysis. Samples showing any of the following events were not used for the study or excluded from analysis.
(§3) Microsoft® Excel 2000 (Microsoft Corp.) was used to sum up and calculate data and prepare tables and figures. Using a concentration-response curve prepared for each sample (X axis: log value of the concentration of the substance added, Y axis: response rate), a negative log value (pEC50) of the concentration that inhibited the uterine contraction by 50% (EC50) was calculated from a straight line connecting the 2 concentrations just above and below 50%, and then converted to EC50 (unit: mol/L).

The subject of experiment [5] is uterine activity of anesthetized pregnant rats. The experiment can be described thus: Uterine motility of anesthetized pregnant rats (balloon method). It counts as in vivo, rat. Particulars: uterine motility, intravenous cumulative dosing every 15 minutes, urethane-anesthetized pregnant rats. The procedure: Rats were anesthetized with urethane, and experiments were conducted based on balloon method. Uterine activity and mean blood pressure of dam were led to a pressure amplifier via a pressure transducer. As for heart rate, pulse waves were led to tachometer. Recti-graphs were used for recording. The test substance, control substance, or positive control substance was administered intravenously and cumulatively every 15 minutes, while doses were increased gradually.

Experiment [6] deals with uterine muscle isolated from pregnant rats. The experiment can be described thus: PG F2α-induced contraction of uterine muscle isolated from pregnant rats. Conditions: contraction induced with 5 μg/mL of PG F2α, mean ± standard error of 10 samples. The format is cell-based, rat. The procedure: as §1, §2, §3
For experiment [7] the test system is unchanged. The experiment can be described thus: Interaction of MN-221 and β-adrenoceptor antagonists on spontaneous contraction of uterine muscle isolated from pregnant rats (Schild regression). The format is cell-based, rat. The procedure: The experimental operation of this study was as reported by T. Kawarabayashi et al.^4. After each SD-strain rat on Day 21 of pregnancy was exsanguinated to death, the uterus was isolated to prepare 8 myometrial samples (about 4 mm×10 mm) in the direction of the longitudinal muscle, with the adhesion to the placenta being avoided. Each myometrial sample was suspended with a load of about 1.0 g in an organ bath containing 10 mL of the Locke-Ringer solution at 37° C. […] After the suspended samples became stable for the amplitude and frequency of spontaneous contraction, each antagonist or distilled water was added to the bath to pretreat them for about 15 minutes. […] The contractile force of each sample was outputted through a force displacement transducer to a strain pressure amplifier and recorded with a rectigraph.
Any variable point (peak) with amplitude (tension) of 0.2 g or lower was excluded from analysis. Samples meeting any of the following criteria were rejected or removed from analysis.
Microsoft® Excel 2000 (Microsoft Corp.) was used for summing up or calculating data and preparing figures and tables. […] This EC50 value was used to calculate the concentration ratio (CR) of EC50 when an antagonist was added (for each sample) to that when no antagonist was added (mean value of the whole control group) and the logarithmic value of CR-1 (log [CR-1]).
Then, the added concentration of the antagonist was plotted on the X axis (logarithmic value) and log(CR-1) on the Y axis (Schild plot) to calculate the value of the X-axis intercept (pA2) and slope of the line using linear approximation (Schild regression^5). The slope was statistically compared with a slope of 1 (paired t-test; a probability level of less than 5% was considered significant). […] The mean and standard error were calculated for each data point obtained and indicated to two decimal places (or in 3 significant digit).

The mark [8] stands for this setting: Rattus norvegicus, read-out: EC50.
The mark [9] stands for this setting: Rattus norvegicus, read-out: pEC50 (converted).

Six compounds from patent US20120035265A1, “COMPOSITIONS, METHODS, AND DEVICES FOR THE TREATMENT OF DYSMENORRHEA” (MediciNova, Inc., priority 2010, published 2012) can be followed below.

Counter-ions that a name gives are not always drawn.

Turning to `CC(NCCc1ccc(O)cc1)C(O)c1ccc(O)cc1` (racemic) [Ritodrine hydrochloride, (±)-erythro-1-(p-hydroxyphenyl)-2-[2-(p-hydroxyphenyl)ethylamino]-1-propanol hydrochloride], the EC50 in experiment [1] (read-out: EC50) was 0.0398 ± 0.0133 µM; in experiment [1] (read-out: pD2 (converted)), 0.0257 µM; in experiment [2], 0.0776 µM; in experiment [3] it was 0.135 µM; in experiment [4] (setting [8]) it was 0.133 ± 0.0168 µM; in experiment [4] (setting [9]) it was 0.12 µM. Also, the EC50 in experiment [6] (setting [8]) was 3.43 ± 0.72 µM; in experiment [6] (setting [9]), 2.63 µM. Also, the ED30 values in experiment [5] amounted to 51.45 µg/kg/min.
With `Cn1cc(C(F)(F)F)nc1-c1ccc(OCC(O)CNCCOc2ccc(O)c(C(N)=O)c2)cc1` (stereo not shown) [CGP 20712A, reference compound], the “antagonistic effect on the effect of MN-221” value in experiment [7] (at a concentration of up to 1×10^−8 mol/L) is given as “no evident antagonistic effect”.
With `CC(C)(C)NC[C@H](O)c1ccc(O)cc1Cl.O=C(O)C(O)C(O)C(=O)O` [HSR-81, meluadrine tartrate], the pD2 values is on record as 8.12 ± 0.21 in experiment [2] and 8.21 ± 0.26 in experiment [3]. Further, the ED30 values in experiment [5] is 0.56 µg/kg/min.
`CCc1ccccc1OC[C@@H](O)CN[C@H]1CCCc2ccccc21` [SR 59230A, reference compound]: in experiment [7] (at a concentration of up to 3×10^−8 mol/L), the “antagonistic effect on the effect of MN-221” value is “no evident antagonistic effect”.
Turning to `CC(C)(C)NCC(O)c1cc(O)cc(O)c1` (stereo not shown) [Terbutaline sulfate, terbutaline sulfate], the EC50 in experiment [2] was 0.0407 µM; in experiment [3] it was 0.0891 µM. The ED30 values in experiment [5] was determined as 0.72 µg/kg/min.
As usually defined, the pEC50 is the EC50 on a negative log10 scale, so that one unit is a factor of ten. Read a low pEC50 as a large EC50. For isoproterenol bitartrate, in experiment [1], the pD2 came out at 9.52±0.13. Further, the EC50 in experiment [1] (read-out: EC50) came to 0.00042 ± 0.0001 µM; in experiment [4] (read-out: EC50) it was 0.000556 ± 4.12e-05 µM; in experiment [6] (read-out: EC50), 0.0051 ± 0.000633 µM. Also, the pD2 values came to 8.53 ± 0.21 in experiment [2] and 8.69 ± 0.17 in experiment [3]. Moreover, the values for the negative-log EC50 (pEC50) in experiment [4] and in experiment [6] were 9.27±0.03 and 8.32±0.05, respectively.
